We go through 8 compounds from ChEMBL document CHEMBL3045105, “Synthesis and hypoglycemic activity evaluation of rhein amide derivatives” (Med Chem Res, 2013).

The test system of series [1] is HepG2. In words: Hypoglycemic activity in Homo sapiens (human) HepG2 cells assessed as glucose consumption at 10 mg/l after 24 hr by glucose enzymatic assay (reference value: 1.972 +/-0.071 mmol/l). The series is classed as functional.
The test system of series [2] is HepG2. In words: Hypoglycemic activity in Homo sapiens (human) HepG2 cells assessed as glucose consumption at 1 mg/l after 24 hr by glucose enzymatic assay (reference value: 1.972 +/-0.071 mmol/l). The series is classed as functional.
In series [3] the test system is HepG2. In words: Ratio of glucose consumption to cytotoxic OD490 absorbance for Homo sapiens (human) HepG2 cells (reference value: 3.438 +/-0.139 no unit).
Series [4] concerns HepG2. In words: Cytotoxicity against Homo sapiens (human) HepG2 cells assessed as absorbance at 490 nm by MTT assay (reference value: 0.574 +/-0.019 no unit). In kind it is cell-based. Conditions: hepg2, 10 mg/L.

Regarding `O=C1c2cccc(O)c2C(=O)c2c(O)cc(C(=O)N3CCCC3)cc21`, the values for the Activity with HepG2 [1] and with HepG2 [2] were 2.315 mmol/L and 2.379 mmol/L, respectively. In addition, the Ratio with HepG2 [3] worked out at 4.116. Moreover, the OD with HepG2 [4] stood at 0.565.
On to `CC(C)(C)[Si](C)(C)Oc1cccc2c1C(=O)c1c(O[Si](C)(C)C(C)(C)C)cc(C(=O)OCc3ccc([N+](=O)[O-])cc3)cc1C2=O`, for which the values for the Activity with HepG2 [1] and with HepG2 [2] were 2.529 mmol/L and 2.576 mmol/L, respectively. In the series on HepG2 [3], the Ratio amounted to 4.499. The OD with HepG2 [4] came out at 0.563.
Take `CC(=O)Oc1cccc2c1C(=O)c1c(OC(C)=O)cc(C(=O)OCc3ccc([N+](=O)[O-])cc3)cc1C2=O`: the Activity with HepG2 [1] was 2.268 mmol/L; in the series with HepG2 [2], 2.198 mmol/L. Besides, the Ratio in the series on HepG2 [3] worked out at 3.958. Moreover, in the series with HepG2 [4], the OD is 0.573.
For the compound `CC(=O)Oc1cccc2c1C(=O)c1c(OC(C)=O)cc(C(=O)NC3CCCC3)cc1C2=O`, the results for the Activity in the series with HepG2 [1] and in the series with HepG2 [2] were 2.256 mmol/L and 2.151 mmol/L, respectively. In the series with HepG2 [3], the Ratio amounted to 3.916. In addition, the OD in the series on HepG2 [4] was 0.577.
In the case of `CN(C)C(=N)NC(=N)N` [METFORMIN], the Activity in the series with HepG2 [1] was 2.25 mmol/L. In addition, in the series on HepG2 [3], the Ratio is 3.923. Also, the OD in the series on HepG2 [4] is on record as 0.574.
`CC(=O)Oc1cccc2c1C(=O)c1c(OC(C)=O)cc(C(=O)N3CCCC3)cc1C2=O`: the Activity in the series on HepG2 [1] is given as 2.541 mmol/L; with HepG2 [2], 2.476 mmol/L. In addition, the Ratio in the series on HepG2 [3] came to 4.304. Also, in the series on HepG2 [4], the OD is 0.591.
Consider `CC(C)(C)[Si](C)(C)Oc1cccc2c1C(=O)c1c(O[Si](C)(C)C(C)(C)C)cc(C(=O)NC3CCCC3)cc1C2=O`, for which the Activity came to 2.578 mmol/L in the series on HepG2 [1] and 2.369 mmol/L with HepG2 [2]. Also, the Ratio with HepG2 [3] worked out at 4.563. The OD in the series on HepG2 [4] was found to be 0.565.
As to `CN(C)C(=O)c1cc(O)c2c(c1)C(=O)c1cccc(O)c1C2=O`, the Activity in the series with HepG2 [1] is on record as 2.485 mmol/L; with HepG2 [2], 2.444 mmol/L. The Ratio with HepG2 [3] is 4.449. The OD with HepG2 [4] came to 0.56.
